Measured values taken from ChEMBL document CHEMBL2046371, “Synthesis and study of cyclic pronucleotides of 5-fluoro-2'-deoxyuridine” (Bioorg Med Chem Lett, 2012).

Tests used:
A2780 = experiment: Cytotoxicity against human A2780 cells after 5 days by MTT assay; format: functional, cell-based; conditions: A2780, 120 h
[1] = Cytotoxicity against thymidine kinase-deficient mouse LMTK cells after 5 days by MTT assay; format: cell-based; conditions: L-M(TK-), 120 h

| Compound | IC50 (A2780) [µM] | IC50 [1] [µM] |
| --- | --- | --- |
| COC(=O)[C@H](C)N[P@@]1(=O)OC[C@H]2O[C@@H](n3cc(F)c(=O)[nH]c3=O)C[C@@H]2O1 | 1.4 | 12.7 |
| COC(=O)CNP1(=O)OC[C@H]2O[C@@H](n3cc(F)c(=O)[nH]c3=O)C[C@@H]2O1 (stereo not given in full) | 0.55 | 141 |
| COC(=O)[C@H](C)NP(=O)(OC[C@H]1O[C@@H](n2cc(F)c(=O)[nH]c2=O)C[C@@H]1O)Oc1ccccc1 (stereo not given in full) | 2.4 | 45.6 |
| COC(=O)[C@H](C)N[P@]1(=O)OC[C@H]2O[C@@H](n3cc(F)c(=O)[nH]c3=O)C[C@@H]2O1 | 1.4 | 60.7 |
| O=c1[nH]c(=O)n([C@H]2C[C@H](O)[C@@H](CO)O2)cc1F [FLOXURIDINE] | 0.026 | 4.5 |
